US20110190235A1, “BORON-CONTAINING SMALL MOLECULES AS ANTIPROTOZOAL AGENTS” (Anacor Pharmaceuticals, Inc., priority 2009, published 2011)
≈ marks a conversion by molar mass, not a printed value. Where two headings read alike, the source gives them in different places.

Key:
[1] = L929 cytotoxicity evaluation (resazurin); assay type: cell-based; conditions: mouse, 72 hrs incubation, read-out: Cytotox L-929 IC50
Experimental: For evaluation of compound effects on mammalian cells, L929 mouse fibroblast cells were used. Cells were maintained as adherent cultures in T-25 vented cap flasks in a humidified incubator at 37° C. in the presence of 5% CO2. Culture media was D-MEM supplemented with 10% fetal bovine serum and 1% penicillin/streptomycin. L929 cells were maintained below confluent levels by sub-culturing at 1:10 dilution twice weekly using 0.05% trypsin for detachment.
Sub-confluent L929 cells were trypsinized, resuspended in fresh media and 10 uL was counted using hemocytometer to determine cell concentration. Cells were diluted to 1×10^4/mL in DMEM, dispensed (100 uL) into 96-well plates using a Multidrop 384 dispenser and allowed to attach overnight. Spent media was replaced with 99.5 uL fresh D-MEM and compounds to be tested were serially diluted in DMSO and 0.5 uL added using a Biomek NX liquid handler. Plates were incubated with compounds for 72 hrs at 37° C. with 5% CO2. Resazurin (20 uL of 12.5 mg/ml stock) from Sigma-Aldrich was added to each well and plates were incubated for an additional 3-4 hrs. Assay plates were read using an EnVision plate reader at an excitation wavelength of 544 nm and emission of 590 nm. Single data points were used to generate sigmoidal dose response curves and determine IC50 values using XLfit curve fitting software from IDBS (Guildford, UK).

[2] = tested on: bloodstream-form trypanosome T. brucei brucei 427 strain; assay: Trypanosoma brucei brucei high-throughput in vitro drug sensitivity assay (resazurin); assay type: cell-based; conditions: for IC50: Trypanosoma brucei; for Selectivity Index (L929 IC50 / T. b. brucei IC50): T. b. brucei vs L929
[3] = 72 hrs incubation, read-out: T.b. brucei IC50
[4] = 72 hrs incubation, read-out: T. b. brucei IC50

| SMILES | IC50 at 72 h ([1]; L929 mouse fibroblast cells) [µg/mL] | IC50 [2, 3] [µg/mL] | Selectivity Index (L929 IC50 / T. b. brucei IC50) [2] | IC50 [2, 4] [nM] | IC50 at 72 h [1] [µg/mL] | IC50 ([2]; 72 h, read-out: T.b. brucei IC50 (ug/mL)) [µg/mL] |
| --- | --- | --- | --- | --- | --- | --- |
| CCCCc1ccc(C(=O)Nc2ccc3c(c2)B(O)OC3(C)C)cc1 [compound 32, 4-Butyl-N-(1-hydroxy-3,3-dimethyl-1,3-dihydro-benzo[c][1,2]oxaborol-6-yl)-benzamide] | > 10 | 0.349 |  |  |  |  |
| CC1(C)OB(O)c2cc(NC(=O)c3cccc(F)c3)ccc21 [compound 41, 3-Fluoro-N-(1-hydroxy-3,3-dimethyl-1,3-dihydro-benzo[c][1,2]oxaborol-6-yl)-benzamide] | > 10 | > 5 |  |  |  |  |
| CC1(C)OB(O)c2cc(NC(=O)C3CC3)ccc21 [compound 126, Cyclopropanecarboxylic acid (1-hydroxy-3,3-dimethyl-1,3-dihydro-benzo[c][1,2]oxaborol-6-yl)-amide] | > 10 | > 5 |  |  |  |  |
| CC1(C)OB(O)c2cc(NC(=O)c3ccc(SC(F)(F)F)cc3)ccc21 [compound 54, N-(1-Hydroxy-3,3-dimethyl-1,3-dihydro-benzo[c][1,2]oxaborol-6-yl)-4-trifluoromethylsulfanyl-benzamide] | > 10 | 0.571 |  |  |  |  |
| Cc1cccc(C(=O)Nc2ccc3c(c2)B(O)OC3(C)C)c1 [compound 28, N-(1-Hydroxy-3,3-dimethyl-1,3-dihydro-benzo[c][1,2]oxaborol-6-yl)-3-methyl-benzamide] | > 10 | 3.17 |  |  |  |  |
| CC1(C)OB(O)c2cc(NC(=O)c3ccc(I)cc3Cl)ccc21 [compound 77, 2-Chloro-N-(1-hydroxy-3,3-dimethyl-1,3-dihydro-benzo[c][1,2]oxaborol-6-yl)-4-iodo-benzamide] | > 10 | 0.05 |  |  |  |  |
| CC1(C)OB(O)c2cc(NC(=O)c3ccc(Cl)cc3F)ccc21 [compound 71, 4-Chloro-2-fluoro-N-(1-hydroxy-3,3-dimethyl-1,3-dihydro-benzo[c][1,2]oxaborol-6-yl)-benzamide] | > 10 | 0.697 |  |  |  |  |
| CCCCCOc1ccc(C(=O)Nc2ccc3c(c2)B(O)OC3(C)C)cc1 [compound 50, N-(1-Hydroxy-3,3-dimethyl-1,3-dihydro-benzo[c][1,2]oxaborol-6-yl)-4-pentyloxy-benzamide] | > 10 | 1.4 |  |  |  |  |
| CC1OB(O)c2cc(NC(=O)c3cccc(F)c3)ccc21 (stereo not drawn) [compound 10, 3-Fluoro-N-(1-hydroxy-3-methyl-1,3-dihydro-benzo[c][1,2]oxaborol-6-yl)-benzamide] | > 10 | 0.037 | >207 | 130 |  |  |
| CC(C)CC1OB(O)c2cc(NC(=O)c3ccccc3C(F)(F)F)ccc21 (stereo not drawn) [compound 22, N-(1-Hydroxy-3-isobutyl-1,3-dihydro-benzo[c][1,2]oxaborol-6-yl)-2-trifluoromethyl-benzamide] | > 10 | 0.866 | >12 | 2300 |  |  |
| CC(C)Cc1ccc(C(=O)Nc2ccc3c(c2)B(O)OC3(C)C)c(Cl)c1 [compound 103] | > 10 | 0.184 |  |  |  |  |
| CC(=O)Nc1ccc(C(=O)Nc2ccc3c(c2)B(O)OC3(C)C)cc1 [compound 59, 4-Acetylamino-N-(1-hydroxy-3,3-dimethyl-1,3-dihydro-benzo[c][1,2]oxaborol-6-yl)-benzamide] | > 10 | 1.61 |  |  |  |  |
| Cc1cc(C(=O)Nc2ccc3c(c2)B(O)OC3(C)C)c(C)o1 [compound 122, 2,5-Dimethyl-furan-3-carboxylic acid (1-hydroxy-3,3-dimethyl-1,3-dihydro-benzo[c][1,2]oxaborol-6-yl)-amide] | > 10 | > 5 |  |  |  |  |
| CC1(C)OB(O)c2cc(NC(=O)c3c(F)ccc(F)c3Cl)ccc21 [compound 104, 2-Chloro-3,6-difluoro-N-(1-hydroxy-3,3-dimethyl-1,3-dihydro-benzo[c][1,2]oxaborol-6-yl)-benzamide] | > 10 | 1.12 |  |  |  |  |
| COc1ccc(C(=O)Nc2ccc3c(c2)B(O)OC3(C)C)cc1 [compound 48, N-(1-Hydroxy-3,3-dimethyl-1,3-dihydro-benzo[c][1,2]oxaborol-6-yl)-4-methoxy-benzamide] | > 10 | 1.11 | >9 | 3570 |  |  |
| CC1(C)OB(O)c2cc(NC(=O)c3cccc(Cl)c3Cl)ccc21 [compound 66, 2,3-Dichloro-N-(1-hydroxy-3,3-dimethyl-1,3-dihydro-benzo[c][1,2]oxaborol-6-yl)-benzamide] | > 10 | 0.292 |  |  |  |  |

| SMILES | IC50 at 72 h ([1]; L929 mouse fibroblast cells) [µg/mL] | IC50 [2, 3] [µg/mL] | Selectivity Index (L929 IC50 / T. b. brucei IC50) [2] | IC50 [2, 4] [nM] | IC50 at 72 h [1] [µg/mL] | IC50 ([2]; 72 h, read-out: T.b. brucei IC50 (ug/mL)) [µg/mL] |
| --- | --- | --- | --- | --- | --- | --- |
| Cc1ccc(C(=O)Nc2ccc3c(c2)B(O)OC3(C)C)c(Cl)c1 [compound 89, 2-Chloro-N-(1-hydroxy-3,3-dimethyl-1,3-dihydro-benzo[c][1,2]oxaborol-6-yl)-4-methyl-benzamide] | > 10 | 0.152 |  |  |  |  |
| CC1(C)OB(O)c2cc(NC(=O)c3ccc(Cl)c(Cl)c3)ccc21 [compound 67, 3,4-Dichloro-N-(1-hydroxy-3,3-dimethyl-1,3-dihydro-benzo[c][1,2]oxaborol-6-yl)-benzamide] | > 10 | > 5 |  |  |  |  |
| Cc1ccc(Cl)c(C(=O)Nc2ccc3c(c2)B(O)OC3(C)C)c1F [compound 108, 6-Chloro-2-fluoro-N-(1-hydroxy-3,3-dimethyl-1,3-dihydro-benzo[c][1,2]oxaborol-6-yl)-3-methyl-benzamide] | > 10 | 0.378 |  |  |  |  |
| CC1(C)OB(O)c2cc(NC(=O)Cc3cccs3)ccc21 [compound 125, N-(1-Hydroxy-3,3-dimethyl-1,3-dihydro-benzo[c][1,2]oxaborol-6-yl)-2-thiophen-2-yl-acetamide] | > 10 | > 5 |  |  |  |  |
| CC1OB(O)c2cc(NC(=O)c3ccc(F)cc3Br)ccc21 (stereo not drawn) [compound 16, 2-Bromo-4-fluoro-N-(1-hydroxy-3-methyl-1,3-dihydro-benzo[c][1,2]oxaborol-6-yl)-benzamide] | 3.06 (≈ 8.41 µM) | 0.107 | 29 | 294 |  |  |
| CC1(C)OB(O)c2cc(NC(=O)c3cc(C(F)(F)F)ccc3C(F)(F)F)ccc21 [compound 81, N-(1-Hydroxy-3,3-dimethyl-1,3-dihydro-benzo[c][1,2]oxaborol-6-yl)-2,5-bis-trifluoromethyl-benzamide] | > 10 | 0.183 |  |  |  |  |
| COc1cccc(OC)c1C(=O)Nc1ccc2c(c1)B(O)OC2(C)C [compound 96, N-(1-Hydroxy-3,3-dimethyl-1,3-dihydro-benzo[c][1,2]oxaborol-6-yl)-2,6-dimethoxy-benzamide] | > 10 | 2.72 |  |  |  |  |
| CC1(C)OB(O)c2cc(NC(=O)C(F)(F)C(F)(F)C(F)(F)F)ccc21 [compound 131, 2,2,3,3,4,4,4-Heptafluoro-N-(1-hydroxy-3,3-dimethyl-1,3-dihydro-benzo[c][1,2]oxaborol-6-yl)-butyramide] |  |  |  |  | > 10 | > 5 |
| COc1cc(C(=O)Nc2ccc3c(c2)B(O)OC3(C)C)cc(OC)c1OC [compound 106, N-(1-Hydroxy-3,3-dimethyl-1,3-dihydro-benzo[c][1,2]oxaborol-6-yl)-3,4,5-trimethoxy-benzamide] | > 10 | > 5 |  |  |  |  |
| CC1(C)OB(O)c2cc(NC(=O)c3ccc(C(F)(F)F)cc3)ccc21 [compound 36, N-(1-Hydroxy-3,3-dimethyl-1,3-dihydro-benzo[c][1,2]oxaborol-6-yl)-4-trifluoromethyl-benzamide] | > 10 | 4.05 |  |  |  |  |
| CC1(C)OB(O)c2cc(NC(=O)c3ccccc3[N+](=O)[O-])ccc21 [compound 55, N-(1-Hydroxy-3,3-dimethyl-1,3-dihydro-benzo[c][1,2]oxaborol-6-yl)-2-nitro-benzamide] | > 10 | 0.122 |  |  |  |  |
| Cc1cc(Br)ccc1C(=O)Nc1ccc2c(c1)B(O)OC2(C)C [compound 91] | > 10 | 0.786 |  |  |  |  |
| CC1(C)OB(O)c2cc(NC(=O)c3ccc(-c4cccs4)cc3)ccc21 [compound 60, N-(1-Hydroxy-3,3-dimethyl-1,3-dihydro-benzo[c][1,2]oxaborol-6-yl)-4-thiophen-2-yl-benzamide] | > 10 | 0.205 |  |  |  |  |
| CC1(C)OB(O)c2cc(NC(=O)c3cccc4ccccc34)ccc21 [compound 111, Naphthalene-1-carboxylic acid (1-hydroxy-3,3-dimethyl-1,3-dihydro-benzo[c][1,2]oxaborol-6-yl)-amide] | > 10 | 1.23 |  |  |  |  |
| CC1(C)OB(O)c2cc(NC(=O)c3ccccc3OC(F)(F)F)ccc21 [compound 51, N-(1-Hydroxy-3,3-dimethyl-1,3-dihydro-benzo[c][1,2]oxaborol-6-yl)-2-trifluoromethoxy-benzamide] | > 10 | 1.15 |  |  |  |  |
| CC1(C)OB(O)c2cc(NC(=O)C3CCC3)ccc21 [compound 127, Cyclobutanecarboxylic acid (1-hydroxy-3,3-dimethyl-1,3-dihydro-benzo[c][1,2]oxaborol-6-yl)-amide] | > 10 | 2.85 |  |  |  |  |
